From paper PMC5901969 (Pharmaceutical research, 2017)
Where two headings read alike, the source gives them in different places. Blank lines part the entries; values can stand above or below the compound they belong to.

What was measured:
[1] = test system: HIV-infected (U1) cell line; assay: Intracellular DRV concentration-time profile in HIV-infected monocytic; format: in vitro ADME; conditions: U1 cells
monocytes = conditions: absence of cobicistat; cited from earlier work
HIV = format: cell-based; conditions: U1 cells, 24 h, p24
CYP3A4 [2] = target: T1, CYP3A4 (Homo sapiens, UniProt P08684); conditions: read-out: apparent Km; ethanol as CYP3A4 substrate; cited from earlier work
[3] = oral 100 mg QD; cited from earlier work
CYP3A4 [4] = target: T1, CYP3A4; conditions: cited from earlier work
[5] = 10 mM and 50 mM ethanol (data not shown)

T1 sequence (P08684 whole entry): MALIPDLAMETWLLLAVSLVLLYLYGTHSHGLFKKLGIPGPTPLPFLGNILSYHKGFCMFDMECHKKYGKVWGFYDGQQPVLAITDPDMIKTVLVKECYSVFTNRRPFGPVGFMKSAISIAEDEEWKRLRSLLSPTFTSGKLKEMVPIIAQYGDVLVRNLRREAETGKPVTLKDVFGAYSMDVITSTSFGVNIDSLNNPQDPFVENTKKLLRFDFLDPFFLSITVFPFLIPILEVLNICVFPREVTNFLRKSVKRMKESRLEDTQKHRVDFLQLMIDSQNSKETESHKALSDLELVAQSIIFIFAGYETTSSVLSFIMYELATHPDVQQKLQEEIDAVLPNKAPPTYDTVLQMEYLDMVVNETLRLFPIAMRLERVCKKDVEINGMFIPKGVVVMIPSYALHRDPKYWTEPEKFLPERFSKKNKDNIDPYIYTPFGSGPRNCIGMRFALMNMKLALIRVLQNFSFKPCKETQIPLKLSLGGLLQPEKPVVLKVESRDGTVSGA

- decrease in intracellular AUCtot of DRV ([1]; 3 μg/ml DRV, 20 mM ethanol, compared to DRV alone): 11%
- intracellular DRV AUCtot, effect of ethanol [1, 5]: no significant change
- intracellular DRV Cmax, effect of ethanol [1, 5]: no significant change
- intracellular Cmax of DRV, effect of ethanol ([1]; 20 mM ethanol): without altering
Compound: CC(C)CN(C[C@@H](O)[C@H](Cc1ccccc1)NC(=O)O[C@H]1CO[C@H]2OCC[C@H]21)S(=O)(=O)c1ccc(N)cc1 [DRV, Darunavir]

Compound: COc1cc2c(cc1Cc1cccc(Cl)c1F)c(=O)c(C(=O)O)cn2[C@H](CO)C(C)C [EVG, Elvitegravir]
- intracellular AUCtot, effect of ethanol exposure (monocytes): decreases
- intracellular Cmax, effect of ethanol exposure (monocytes): decreases

Compound: CCO [Ethanol]
- increase in HIV replication compared to control (HIV; 10 mM ethanol alone): 89%
- increase in HIV replication compared to control (HIV; 20 mM ethanol alone): 20.6%
- increase in HIV replication compared to control (HIV; 50 mM ethanol alone): 41%
- Km (CYP3A4 [2]): 10 mM

Compound: CC(C)c1nc(CN(C)C(=O)N[C@H](C(=O)N[C@@H](Cc2ccccc2)C[C@H](O)[C@H](Cc2ccccc2)NC(=O)OCc2cncs2)C(C)C)cs1 [RTV, Ritonavir]
- Cmax [3]: 1000 ng/mL

Compound: Cc1c(O)cccc1C(=O)N[C@@H](CSc1ccccc1)[C@H](O)CN1C[C@H]2CCCC[C@H]2C[C@H]1C(=O)NC(C)(C)C [nelfinavir]
- decrease in IC50 in response to ethanol exposure (CYP3A4 [4]): 3 fold
